From patent publication US20080026996A1, “Selective Vpac2 Receptor Reptide Agonists” (ELI LILLY AND COMPANY, priority 2004, published 2008)
Where a SMILES comes first, the peptide text is derived from it. Where no end group is shown, it is not given here. [ ]: non-standard residue; d: D form. The star is where a group is joined. hArg = N=C(N)NCCCC[C@H](N)C(=O)O; Cit = NC(=O)NCCC[C@H](N)C(=O)O; Hexanoyl = CCCCCC(=O)*; Aib = CC(C)(N)C(=O)O

How the values were obtained:
human VPAC1 = target: T1, human VPAC1 (Homo sapiens, UniProt P32241); test: Filter binding assay, membranes of cells transiently transfected with human VPAC1, 125I-labeled VIP tracer (Table 2); design: expressed in transfected cells; details: read-out: Human VPAC1 Receptor Binding
T1 sequence (P32241 31-457): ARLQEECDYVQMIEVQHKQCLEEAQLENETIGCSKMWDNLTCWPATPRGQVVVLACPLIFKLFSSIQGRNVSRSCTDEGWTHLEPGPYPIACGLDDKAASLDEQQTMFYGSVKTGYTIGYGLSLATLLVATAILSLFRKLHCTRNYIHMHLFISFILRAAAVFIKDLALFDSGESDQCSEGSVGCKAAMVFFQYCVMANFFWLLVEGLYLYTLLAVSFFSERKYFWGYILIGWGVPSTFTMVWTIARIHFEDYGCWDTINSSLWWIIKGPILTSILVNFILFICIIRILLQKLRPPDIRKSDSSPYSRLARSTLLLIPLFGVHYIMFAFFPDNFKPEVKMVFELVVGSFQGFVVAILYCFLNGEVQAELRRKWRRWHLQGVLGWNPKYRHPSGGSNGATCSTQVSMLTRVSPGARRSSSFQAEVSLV
Method in brief: (§1)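 Membranes 2.5 μg/well; tracer ~40000 cpm; buffer 25 mM HEPES pH 7.4, 0.5% protease-free BSA; 1 h incubation, shaking. Glass-fibre filtration (0.5% polyethyleneamine presoak, 0.2% BSA block), 3× HEPES wash, dry 1 h at 60° C, scintillation count.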

human PAC1 = target: T2, human PAC1 (Homo sapiens, UniProt P41586); test: Filter binding assay, membranes of cells transiently transfected with human PAC1, 125I-labeled PACAP-27 tracer (Table 2); design: expressed in transfected cells; details: read-out: Human PAC1 Receptor Binding
T2 sequence (P41586 21-468): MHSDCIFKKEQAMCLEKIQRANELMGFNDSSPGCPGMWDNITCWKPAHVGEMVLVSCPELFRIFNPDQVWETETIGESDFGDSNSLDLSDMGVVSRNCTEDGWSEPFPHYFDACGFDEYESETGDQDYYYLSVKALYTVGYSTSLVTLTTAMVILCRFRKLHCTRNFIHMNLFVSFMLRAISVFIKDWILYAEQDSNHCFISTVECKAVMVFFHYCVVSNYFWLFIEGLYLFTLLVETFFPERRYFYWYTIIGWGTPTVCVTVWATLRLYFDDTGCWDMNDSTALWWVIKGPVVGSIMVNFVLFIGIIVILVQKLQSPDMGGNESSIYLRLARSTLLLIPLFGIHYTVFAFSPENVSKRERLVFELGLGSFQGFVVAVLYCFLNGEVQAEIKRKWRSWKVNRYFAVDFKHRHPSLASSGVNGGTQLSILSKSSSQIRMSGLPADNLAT
Method in brief: as §1

[1] = Rat serum stability studies (remaining active peptide by DiscoveRx cAMP on CHO-VPAC2 cells); type: in vitro ADME
Experimental: Store the aliquot with aprotinin at 4° C. Store the aliquot without aprotinin at 37° C. […] […] Incubate in room temperature for 30 minutes. Remove the supernatant. […] Incubate on the shaker (300 rpm) for 1 hour. Proceed as normal with the DiscoveRx kit. Include cAMP standards in column 12. Determine EC50 values from the cAMP assay data.

human VPAC2 [2] = target: T3, human VPAC2 (Homo sapiens, UniProt P41587); test: Filter binding assay, membranes of stable VPAC2 cell line, 125I-labeled VIP tracer (Table 2); details: read-out: Human VPAC2 Receptor Binding
T3 construct: expressed in transfected cells
T3 sequence (P41587 24-438): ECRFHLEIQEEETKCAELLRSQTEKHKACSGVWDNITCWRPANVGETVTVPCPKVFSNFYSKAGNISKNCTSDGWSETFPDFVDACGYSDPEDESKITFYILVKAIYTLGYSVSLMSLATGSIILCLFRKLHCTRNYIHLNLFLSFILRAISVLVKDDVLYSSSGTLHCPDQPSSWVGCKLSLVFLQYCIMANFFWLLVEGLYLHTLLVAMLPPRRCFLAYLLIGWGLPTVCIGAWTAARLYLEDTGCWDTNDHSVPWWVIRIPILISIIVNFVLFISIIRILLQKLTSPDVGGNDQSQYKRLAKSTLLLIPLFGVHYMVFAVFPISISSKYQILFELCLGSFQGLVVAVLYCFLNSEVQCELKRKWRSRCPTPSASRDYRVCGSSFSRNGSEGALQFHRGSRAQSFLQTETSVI
Method in brief: as §1

human VPAC2 [3] = target: T3, human VPAC2; test: Alpha screen cAMP in vitro potency, human VPAC2 receptor; type: cell-based; details: cAMP generation; single result from two analyses performed in a single run; read-out: Human VPAC2 Receptor: Alpha Screen EC50
Method in brief: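 Stimulated cAMP accumulation is read by AlphaScreen after 60 min exposure of 50,000 non-enzymatically harvested cells to compound, followed by lysis with donor beads.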

Row | Compound | IC50 (human VPAC1) [nM] | IC50 (human PAC1) [nM] | Rat Serum Stability (estimated purity in % after 18 hours) [1] [%] | IC50 (human VPAC2 [2]) [nM] | EC50 (human VPAC2 [3]) [nM]
1 | Hexanoyl-HSDAVFTDNYTRLA[Aib]QVAA[Aib]KYLQSIKNKRYGGPSSGAPPPS [Agonist P301] | > 3000 | > 25000 | 6.86 | 7.27 | –
2 | Hexanoyl-HSDAVFTDNYTRLLAKLAAQKYLQSIKNKRYGGPSSGAPPPS [Agonist P197] | 447 | – | 5.68 | 0.31 | 0.09
3 | Hexanoyl-HSDA[Aib]FTDNYTRLRKQVAAKKYLQSIKNKRYGGPSSGAPPPS [Agonist P212] | 198 | – | 0.21 | 0.19 | 0.12
4 | CCCCCC(=O)N[C@@H](Cc1c[nH]cn1)C(=O)N[C@@H](CO)C(=O)N[C@@H](CC(=O)O)C(=O)N[C@@H](C)C(=O)N[C@H](C(=O)N[C@@H](Cc1ccccc1)C(=O)N[C@H](C(=O)N[C@@H](CC(=O)O)C(=O)N[C@@H](CC(N)=O)C(=O)N[C@@H](Cc1ccc(O)cc1)C(=O)N[C@H](C(=O)N[C@@H](CCCNC(=N)N)C(=O)N[C@@H](CC(C)C)C(=O)N[C@@H](CCCNC(=N)N)C(=O)N[C@@H](CCCCN)C(=O)N[C@@H](CCC(N)=O)C(=O)N[C@H](C(=O)N[C@@H](C)C(=O)N[C@@H](C)C(=O)N[C@@H](CCCCN)C(=O)N[C@@H](CCCNC(=N)N)C(=O)N[C@@H](Cc1ccc(O)cc1)C(=O)N[C@@H](CC(C)C)C(=O)N[C@@H](CCC(N)=O)C(=O)N[C@@H](CO)C(=O)N[C@H](C(=O)N[C@@H](CCCNC(=N)N)C(=O)N[C@@H](CC(N)=O)C(=O)NCC(=O)NCC(=O)N1CCC[C@H]1C(=O)N[C@@H](CO)C(=O)N[C@@H](CO)C(=O)NCC(=O)N[C@@H](C)C(=O)N1CCC[C@H]1C(=O)N1CCC[C@H]1C(=O)N1CCC[C@H]1C(=O)N[C@@H](CO)C(=O)O)[C@@H](C)CC)C(C)C)[C@@H](C)O)[C@@H](C)O)C(C)C [Agonist P213] (Hexanoyl-HSDAVFTDNYTRLRKQVAAKRYLQSIRNGGPSSGAPPPS-OH; C-terminus assumed) | 32.2 | – | 0.04 | 0.27 | 0.24
5 | Hexanoyl-HSDAVFTDNYTRLR[Aib]QVAA[Aib]AYLQSIKNKRYGGPSSGAPPPS [Agonist P341] | > 3000 | – | 12.82 | 2.39 | 0.38
6 | Hexanoyl-HSDAVFTDNYTRLRKQVAAKKYLQSIKNKRFGGPSSGAPPPS [Agonist P203] | – | – | <0.09 | 0.18 | 0.14
7 | CCCCCC(=O)N[C@@H](Cc1c[nH]cn1)C(=O)N[C@@H](CO)C(=O)N[C@@H](CC(=O)O)C(=O)N[C@@H](C)C(=O)N[C@H](C(=O)N[C@@H](Cc1ccccc1)C(=O)N[C@H](C(=O)N[C@@H](CC(=O)O)C(=O)N[C@@H](CC(N)=O)C(=O)N[C@@H](Cc1ccc(O)cc1)C(=O)N[C@H](C(=O)N[C@@H](CCCNC(=N)N)C(=O)N[C@@H](CC(C)C)C(=O)N[C@@H](CCCNC(=N)N)C(=O)N[C@@H](CCCCN)C(=O)N[C@@H](CCC(N)=O)C(=O)N[C@H](C(=O)N[C@@H](C)C(=O)N[C@@H](C)C(=O)N[C@@H](CCCNC(=N)N)C(=O)N[C@@H](CCCNC(=N)N)C(=O)N[C@@H](Cc1ccc(O)cc1)C(=O)N[C@@H](CC(C)C)C(=O)N[C@@H](CCC(N)=O)C(=O)N[C@@H](CO)C(=O)N[C@H](C(=O)N[C@@H](CCCNC(=N)N)C(=O)N[C@@H](CC(N)=O)C(=O)NCC(=O)NCC(=O)N1CCC[C@H]1C(=O)N[C@@H](CO)C(=O)N[C@@H](CO)C(=O)NCC(=O)N[C@@H](C)C(=O)N1CCC[C@H]1C(=O)N1CCC[C@H]1C(=O)N1CCC[C@H]1C(=O)N[C@@H](CO)C(=O)O)[C@@H](C)CC)C(C)C)[C@@H](C)O)[C@@H](C)O)C(C)C [Agonist P214] (Hexanoyl-HSDAVFTDNYTRLRKQVAARRYLQSIRNGGPSSGAPPPS-OH; C-terminus assumed) | 14.5 | – | 0.07 | 0.19 | 0.16
8 | Hexanoyl-HSDAVFTANYTRLRKQVAAKKYLQSIKNKRYGGPSSGAPPPS [Agonist P158] | 25.7 | – | 0.32 | 0.21 | 0.11
9 | Hexanoyl-HSDAVFTDNYTRLRLQVAAKKYLQSIKNKRYGGPSSGAPPPS [Agonist P179] | 390 | – | 1.66 | 0.42 | 0.24
10 | Hexanoyl-HSDAVFTDNYTRL[hArg][Aib]QVAA[Aib]KYLQSIKNKRYGGPSSGAPPPS [Agonist P316] | > 3000 | – | 15.06 | 0.38 | 0.3
11 | Hexanoyl-HSDAVFTDNYTRLRKQVAAKLYLQSIKNKRYGGPSSGAPPPS [Agonist P185] | 358 | – | 0.27 | 0.41 | 0.18
12 | Hexanoyl-HSDAVFTENYTRLRKQVAAKKYLQSIKNKRYGGPSSGAPPPS [Agonist P159] | 131 | – | 0.15 | 0.17 | 0.17
13 | Hexanoyl-HSDAVFTDNYTRLR[Aib]QAAA[Aib]KYLQSIKNKRYGGPSSGAPPPS [Agonist P324] | > 3000 | – | 13.64 | 0.43 | 0.23
14 | Hexanoyl-HSD[dA]VFTDNYTRLRKQVAAKKYLQSIKNKRYGGPSSGAPPPS [Agonist P207] | 282 | – | <0.29 | 0.81 | 0.86
15 | CCCCCC(=O)N[C@@H](Cc1c[nH]cn1)C(=O)N[C@@H](CO)C(=O)N[C@@H](CC(=O)O)C(=O)N[C@@H](C)C(=O)N[C@H](C(=O)N[C@@H](Cc1ccccc1)C(=O)N[C@H](C(=O)N[C@@H](CC(=O)O)C(=O)N[C@@H](CC(N)=O)C(=O)N[C@@H](Cc1ccc(O)cc1)C(=O)N[C@H](C(=O)N[C@@H](CCCNC(=N)N)C(=O)N[C@@H](CC(C)C)C(=O)N[C@@H](CCCNC(=N)N)C(=O)N[C@@H](CCCNC(=N)N)C(=O)N[C@@H](CCC(N)=O)C(=O)N[C@H](C(=O)N[C@@H](C)C(=O)N[C@@H](C)C(=O)N[C@@H](CCCCN)C(=O)N[C@@H](CCCNC(=N)N)C(=O)N[C@@H](Cc1ccc(O)cc1)C(=O)N[C@@H](CC(C)C)C(=O)N[C@@H](CCC(N)=O)C(=O)N[C@@H](CO)C(=O)N[C@H](C(=O)N[C@@H](CCCNC(=N)N)C(=O)N[C@@H](CC(N)=O)C(=O)NCC(=O)NCC(=O)N1CCC[C@H]1C(=O)N[C@@H](CO)C(=O)N[C@@H](CO)C(=O)NCC(=O)N[C@@H](C)C(=O)N1CCC[C@H]1C(=O)N1CCC[C@H]1C(=O)N1CCC[C@H]1C(=O)N[C@@H](CO)C(=O)O)[C@@H](C)CC)C(C)C)[C@@H](C)O)[C@@H](C)O)C(C)C [Agonist P215] (Hexanoyl-HSDAVFTDNYTRLRRQVAAKRYLQSIRNGGPSSGAPPPS-OH; C-terminus assumed) | – | – | 0.08 | – | 0.09
16 | Hexanoyl-HSDAVFTDNYTRL[Cit][Aib]QVAA[Aib]KYLQSIKNKRYGGPSSGAPPPS [Agonist P320] | > 3000 | – | 28.59 | 1.2 | 0.49
